Measurements as given in paper PMC4594923, “Food Polyphenols Fail to Cause a Biologically Relevant Reduction of COX-2 Activity” (PLoS ONE, 2015).
Entries after “also recorded” stand apart in the source; their conditions may differ. Marks after values point to notes of the source that are not given here.

How the values were obtained:
COX–2 protein = experiment: COX–2 expression in HCA–7 cells (Western Blot); assay type: cell-based, human; settings: 24 h, vs. control
Procedure: HCA–7 cells were incubated with sub-cytotoxic concentrations of the polyphenols dissolved in Tris buffered DMEM medium. Cytotoxicity of the polyphenols was evaluated by the lactate dehydrogenase leakage test (Cyto-Tox-ONE, Promega Mannheim, Germany). After 24 h the supernatant was collected for LC-MS analysis and the cells were harvested to analyze the COX–2 expression by Western Blotting.

COX–2 = biological target: T1, COX–2 (Homo sapiens, UniProt P35354); experiment: PGE2 formation in LPS stimulated primary human monocytes (24 h, LC-MS); assay type: cell-based; settings: up to 1 μM
T1 sequence (P35354 18-604): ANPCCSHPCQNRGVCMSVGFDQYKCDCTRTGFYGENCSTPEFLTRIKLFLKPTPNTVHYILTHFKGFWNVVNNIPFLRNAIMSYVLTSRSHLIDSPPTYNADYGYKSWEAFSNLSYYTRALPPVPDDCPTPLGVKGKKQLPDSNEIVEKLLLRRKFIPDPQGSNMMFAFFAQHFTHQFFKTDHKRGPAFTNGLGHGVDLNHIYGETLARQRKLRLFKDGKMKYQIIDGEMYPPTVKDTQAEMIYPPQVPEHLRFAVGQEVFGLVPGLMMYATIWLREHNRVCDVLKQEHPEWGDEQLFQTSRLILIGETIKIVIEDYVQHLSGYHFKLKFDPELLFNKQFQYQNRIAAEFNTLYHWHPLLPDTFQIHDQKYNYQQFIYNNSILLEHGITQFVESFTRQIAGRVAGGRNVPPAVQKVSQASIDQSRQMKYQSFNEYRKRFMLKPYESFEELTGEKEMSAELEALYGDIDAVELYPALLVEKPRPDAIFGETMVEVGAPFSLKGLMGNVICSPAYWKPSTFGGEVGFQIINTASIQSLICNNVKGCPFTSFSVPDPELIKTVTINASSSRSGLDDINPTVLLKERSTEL
Procedure: The in vitro assays were performed as described [6, 16, 18] and COX metabolites were quantified by LC-MS [18].
Primary human monocytes were freshly isolated from human blood. Blood was collected from healthy human subjects after written informed consent was obtained. […] After 24 h, the supernatant was sampled for LC-MS and cells were collected for the COX–2 expression analysis by Western Blotting.
GraphPad Prism 5.0 (GraphPad Software, San Diego, USA) was used for data analysis, the fitting of dose response curves and calculation of the IC50 values. Statistical differences were determined by Dunnetts test (LPS vs. other groups).

[1] = test system: arachidonic acid (AA) cascade; experiment: plasma oxylipin/PG levels in LPS induced sepsis in mice; assay type: in vivo, C57BL/6N mice;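 note: male C57BL/6N mice given LPS, plasma oxylipins quantified by LC-MS after solid-phase extraction, pretreatment or vehicle given intraperitoneally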
[2] = clinical chemistry in plasma (urea, creatinine, AST, ALT, LDH) in LPS induced sepsis in mice; assay type: in vivo, C57BL/6N mice; settings: compound i. p. 100 mg/kg bw 2 h before LPS, 24 h after LPS
ovine recombinant COX–1 = biological target: T2, ovine recombinant COX–1 (Ovis aries, UniProt P05979); experiment: cell-free COX–1 enzyme assay (PGE2 formation, LC-MS); assay type: biochemical; design: purchased Cayman Chemicals/ Biomol, Hamburg, Germany
T2 sequence (P05979 25-600): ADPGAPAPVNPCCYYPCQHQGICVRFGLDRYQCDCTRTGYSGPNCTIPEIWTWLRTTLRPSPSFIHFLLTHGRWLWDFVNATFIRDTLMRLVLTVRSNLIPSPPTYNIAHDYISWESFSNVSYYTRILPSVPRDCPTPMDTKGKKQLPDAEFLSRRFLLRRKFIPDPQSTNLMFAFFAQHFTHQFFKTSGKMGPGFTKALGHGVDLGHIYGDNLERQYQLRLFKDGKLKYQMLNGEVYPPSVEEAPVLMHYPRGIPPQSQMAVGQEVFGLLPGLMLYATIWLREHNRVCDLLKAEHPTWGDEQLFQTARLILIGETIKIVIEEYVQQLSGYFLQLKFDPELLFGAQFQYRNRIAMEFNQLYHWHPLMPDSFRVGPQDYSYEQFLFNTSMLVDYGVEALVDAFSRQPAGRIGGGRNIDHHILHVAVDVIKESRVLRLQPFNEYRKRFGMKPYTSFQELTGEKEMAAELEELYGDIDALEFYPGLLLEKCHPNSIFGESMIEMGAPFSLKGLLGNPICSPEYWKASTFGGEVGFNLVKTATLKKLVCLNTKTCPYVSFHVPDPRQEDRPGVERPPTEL

[3] = mice, compound i. p. 100 mg/kg bw 2 h before LPS (10 mg/kg bw i. p.), 24 h after LPS, vs. LPS group
[4] = plasma 24 h after LPS treatment, LPS +, mean

Compound: Oc1ccc(/C=C/c2cc(O)cc3c2[C@@H](c2cc(O)cc(O)c2)[C@H](c2ccc(O)cc2)O3)cc1 [ε-Viniferin, ε-viniferin]
- COX-2 Expression, HCA-7 cell line (COX–2 protein): no effect (up to 1 μM)
- inhibition, primary monocytes (COX–2): inhibition < 50% (up to 1 μM)
- plasma 8-iPF2α level (non-enzymatically formed autoxidation marker) [1, 3]: high levels
- plasma 13,14-dihydro-15-keto-PGE1 level [1, 3]: high levels
- plasma 13,14-dihydro-15-keto-PGF2α level [1, 3]: high levels
- plasma PGF2α level [1, 3]: high levels
- 1a,1b-dihomo-PGF2α concentration in plasma [1, 4]: 0.42^† nM
- 4,5-DiHDPE concentration in plasma [1, 4]: 23^‡ nM
- 4-HDHA concentration in plasma [1, 4]: 1.7 nM
- 5(6)-EpETrE concentration in plasma [1, 4]: 11 nM
- 5,6-DiHETrE concentration in plasma [1, 4]: 1.3^‡ nM
- 5-HEPE concentration in plasma [1, 4]: 0.25^* nM
- 5-HETE concentration in plasma [1, 4]: 2.8 nM
- 5-iPF2α concentration in plasma [1, 4]: 0.91^‡ nM
- 5-oxo-ETE concentration in plasma [1, 4]: 4.7 nM
- 6-keto-PGF1α concentration in plasma [1, 4]: 2.8 nM
- 7,8-DiHDPE concentration in plasma [1, 4]: 1.1 nM
- 7-HDHA concentration in plasma [1, 4]: 0.55 nM
- 8(9)-EpETrE concentration in plasma [1, 4]: 2.5 nM
- 8,9-DiHETrE concentration in plasma [1, 4]: 2.5 nM
- 8-HDHA concentration in plasma [1, 4]: 3.8 nM
- 8-HEPE concentration in plasma [1, 4]: 1.2^† nM
- 8-HETE concentration in plasma [1, 4]: 12^* nM
- 8-iPF2a concentration in plasma [1, 4]: 0.30^* nM
- 9(10)-EpODE concentration in plasma [1, 4]: 6.5 nM
- 9(10)-EpOME concentration in plasma [1, 4]: 61 nM
- 9(10)-Epoxystearic acid concentration in plasma [1, 4]: 37 nM
- 9,10,13-TriHOME concentration in plasma [1, 4]: 2.2 nM
- 9,10-DiHODE concentration in plasma [1, 4]: 4.5 nM
- 9,10-DiHOME concentration in plasma [1, 4]: 30 nM
- 9,10-Dihydroxystearic acid concentration in plasma [1, 4]: 10 nM
- 9,12,13-TriHOME concentration in plasma [1, 4]: 17 nM
- 9-HODE concentration in plasma [1, 4]: 210 nM
- 9-HOTrE concentration in plasma [1, 4]: 12 nM
- 9-oxo-ODE concentration in plasma [1, 4]: 38 nM
- 10(11)-EpDPE concentration in plasma [1, 4]: 3.9 nM
- 10,11-DiHDPE concentration in plasma [1, 4]: 0.62^* nM
- 10-HDHA concentration in plasma [1, 4]: 27^† nM
- 11(12)-EpETrE concentration in plasma [1, 4]: 2.6 nM
- 11,12-DiHETE concentration in plasma [1, 4]: 0.38^‡ nM
- 11,12-DiHETrE concentration in plasma [1, 4]: 2.0 nM
- 11-HDHA concentration in plasma [1, 4]: 0.91 nM
- 11-HETE concentration in plasma [1, 4]: 3.8^* nM
- 12(13)-EpODE concentration in plasma [1, 4]: 3.3 nM
- 12(13)-EpOME concentration in plasma [1, 4]: 48 nM
- 12,13-DiHODE concentration in plasma [1, 4]: 2.8 nM
- 12,13-DiHOME concentration in plasma [1, 4]: 110^* nM
- 12-HEPE concentration in plasma [1, 4]: 239^† nM
- 12-HETE concentration in plasma [1, 4]: 1700^† nM
- 13(14)-EpDPE concentration in plasma [1, 4]: 2.9 nM
- 13,14-DiHDPE concentration in plasma [1, 4]: 0.55^* nM
- 13,14-dihydro-15-keto-PGE1 concentration in plasma [1, 4]: 0.34^† nM
- 13,14dihydro-15-keto-PGF2α concentration in plasma [1, 4]: 2.1^‡ nM
- 13-HDHA concentration in plasma [1, 4]: 3.9^* nM
- 13-HODE concentration in plasma [1, 4]: 540 nM
- 13-HOTrE concentration in plasma [1, 4]: 61 nM
- 13-oxo-ODE concentration in plasma [1, 4]: 8.3 nM
- 14(15)-EpETE concentration in plasma [1, 4]: 0.18^* nM
- 14(15)-EpETrE concentration in plasma [1, 4]: 2.4 nM
- 14,15-DiHETE concentration in plasma [1, 4]: 0.36 nM
- 14,15-DiHETrE concentration in plasma [1, 4]: 2.5 nM
- 14-HDHA concentration in plasma [1, 4]: 800^† nM
- 15(16)-EpODE concentration in plasma [1, 4]: 2.9 nM
- 15(S)-HETrE concentration in plasma [1, 4]: 5.7^‡ nM
- 15,16-DiHODE concentration in plasma [1, 4]: 53 nM
- 15-HEPE concentration in plasma [1, 4]: 1.5^‡ nM
- 15-HETE concentration in plasma [1, 4]: 7.9^† nM
- 15-oxo-ETE concentration in plasma [1, 4]: 0.34 nM
- 16(17)-EpDPE concentration in plasma [1, 4]: 2.8 nM
- 16,17-DiHDPE concentration in plasma [1, 4]: 1.1^† nM
- 16-HDHA concentration in plasma [1, 4]: 1.1 nM
- 17(18)-EpETE concentration in plasma [1, 4]: 1.1 nM
- 17,18-DiHETE concentration in plasma [1, 4]: 1.8 nM
- 17-HDHA concentration in plasma [1, 4]: 39^† nM
- 18-HEPE concentration in plasma [1, 4]: 0.81 nM
- 19(20)-EpDPE concentration in plasma [1, 4]: 13 nM
- 19,20-DiHDPE concentration in plasma [1, 4]: 14 nM
- 20-HDHA concentration in plasma [1, 4]: 3.6 nM
- 20-HEPE concentration in plasma [1, 4]: 5.7^† nM
- 20-HETE concentration in plasma [1, 4]: 2.7^‡ nM
- EKODE concentration in plasma [1, 4]: 16 nM
- PGD2 concentration in plasma [1, 4]: 0.90 nM
- PGE2 concentration in plasma [1, 4]: 1.6 nM
- PGF1α concentration in plasma [1, 4]: 0.25^‡ nM
- PGF2α concentration in plasma [1, 4]: 0.77^‡ nM
- TXB2 concentration in plasma [1, 4]: 4.2 nM
- plasma ALT activity [2]: elevated; also recorded: moderate elevation
- plasma AST activity [2]: elevated; also recorded: moderate elevation
- plasma LDH activity [2]: moderate elevation
- plasma creatinine level [2]: elevation
- plasma urea level [2]: elevation
- effect on COX–1 dependent PGE2 formation, cell-free enzyme assay (ovine recombinant COX–1): dose-dependently decreased; also recorded: inhibited
- IC50 (ovine recombinant COX–1; calculated based on PGE2, n = 3, read-out: IC50 (95% CI), COX–1 enzyme assay): 1600 nM
